Measurements from patent publication US20230095689A1, “METHOD OF CULTURING RECONSTRUCTED HUMAN SKIN” (Korea University Research and Business Foundation, priority 2021, published 2023).

System: reconstructed human skin produced according to Example 1
Experiment: Evaluation of skin barrier function of reconstructed human skin with liquid surfactant (MTT, OECD Test Guideline 439)
Format: cell-based
Procedure: In order to confirm the skin barrier function of the reconstructed human skin produced according to the present invention, the skin barrier function was evaluated using the reconstructed human skin produced in the culture vessel having the inner wall coated with dopamine in Example 1. The skin barrier function was evaluated in a manner in which cell viability relative to an untreated control depending on the treatment time with 1% Triton X-100 was measured, and ET50 (Effective Time 50%), which is the time taken to reach the cell viability of 50%, was determined, according to the barrier evaluation method presented as a performance standard in OECD Test Guideline 439. […] The formazan dye thus formed was dissolved in 2 ml of 2-propanol, 200 μl thereof was placed in each of two wells of a 96-well plate, and optical density at a wavelength of 570 nm was measured using a plate reader, and each optical density of treated group was compared to those in untreated control, thereby calculating relative cell viability, and ET50 (Effective Time 50), which is the time taken to reach the cell viability of 50%, was determined.

Substance: Triton X-100
- relative cell viability (1% Triton X-100 for 2, 5, 8 and 20 hours, MTT relative to untreated control): decreased depending on the treatment time
- ET50 (Effective Time 50), time taken to reach the cell viability of 50% (200 μl of 1% Triton X-100 solution on upper surface, MTT, optical density at 570 nm relative to untreated control): about 4.5 hours
